Measured values published in PMC6254286, “Quantitative Structure − Antiprotozoal Activity Relationships of Sesquiterpene Lactones ^†” (Molecules, 2009).
Where two headings read alike, the source gives them in different places.

Tests used:
[1] = system: Trypanosoma brucei rhodesiense STIB 900; test: In vitro activity against T. brucei rhodesiense bloodstream forms (Alamar blue); assay type: cell-based; conditions: for IC50: mean of two independent measurements; for selectivity index (SI) with respect to Tbr: ratio of cytotoxic IC50 (L6) over IC50 against Tbr
Experimental: (§1) Trypanosoma brucei rhodesiense and cytotoxicity against L6 cells. Minimum Essential Medium with Earle’s salts (50 µL) supplemented with 0.2 mM 2-mercapto-ethanol, 1 mM Na-pyruvate and 15% heat-inactivated horse serum was added to each well of a 96-well microtiter plate. […] Then 10^4 bloodstream forms of Trypanosoma brucei rhodesiense STIB 900 in 50 µL of medium were added to each well and the plate incubated at 37°C under a 5% CO2 atmosphere for 72 hours. […] The plate was then read in a Spectramax Gemini XS microplate fluorometer (Molecular Devices Corporation, Sunnyvale, CA, USA) using an excitation wavelength of 536 nm and emission wavelength of 588 nm. Fluorescence development was measured and expressed as percentage of the control. Data were transferred into the graphic programme Softmax Pro (Molecular Devices) which calculated IC50 values. Cytotoxicity was assessed using a similar protocol and rat skeletal myoblasts (L6 cells). […] All following steps were according to the T. b. rhodesiense protocol.

[2] = system: T. cruzi Tulahuen strain C2C4; test: In vitro activity against T. cruzi in L-6 host cells (beta-galactosidase/CPRG); assay type: cell-based, Trypanosoma cruzi; conditions: Trypanosoma cruzi, read-out: IC50 T. cruzi (Tcr)
Experimental: Trypanosoma cruzi. Rat skeletal myoblasts (L-6 cells) were seeded in 96-well microtiter plates at 2,000 cells/well in 100 µL RPMI 1640 medium with 10% FBS (fetal bovine serum) and 2 mM L-glutamine. After 24 hours the medium was removed and replaced by 100 µL per well containing 5,000 trypomastigote forms of T. cruzi Tulahuen strain C2C4 containing the β-galactosidase (Lac Z) gene. Fortyeight hours later the medium was removed from the wells and replaced by […] fresh medium with or without a serial drug dilution. Seven 3-fold dilutions were used covering a range from […]. Each drug was tested in duplicate. After 96 hours of incubation the plates were inspected under an inverted microscope to assure growth of the controls and sterility. Then the substrate CPRG/ Nonidet (50 µL) was added to all wells. A colour reaction developed within 2-6 hours and could be read photometrically at 540 nm.

[3] = in vitro; conditions: rat; for IC50: IC50 Cytotoxicity (L6), L6 rat skeletal myoblasts, 72 h, mean of two independent measurements
Experimental: as §1

[4] = system: Leishmania donovani amastigotes (strain MHOM/ET/67/L82); test: L. donovani axenic amastigote assay (resazurin); assay type: cell-based; conditions: for IC50: Leishmania donovani
Experimental: Leishmania donovani (axenic amastigote assay). […] Serial drug dilutions in duplicates were prepared covering a range from 30 to 0.041 µg/mL. […] The compounds used as positive controls in the various bioassays (see Table 1) were of commercial origin, with the exception of melarsoprol, which was a gift from WHO. Their purity (generally > 95%) was specified by the manufacturers.

[5] = system: K1 strain of P. falciparum; test: Antiplasmodial [3H]-hypoxanthine incorporation assay; assay type: cell-based, Plasmodium falciparum; conditions: Plasmodium falciparum
Experimental: Plasmodium falciparum. Antiplasmodial activity was determined using the K1 strain of P. falciparum (resistant to chloroquine and pyrimethamine). A modification of the [3H]-hypoxanthine incorporation assay was used. Briefly, infected human red blood cells (final parasitaemia and haematocrit were 0.3% and 1.25%, respectively) in RPMI 1640 medium with 5% Albumax were exposed to serial drug dilutions in microtiter plates. After 48 hours of incubation at 37°C in a reduced oxygen atmosphere, 0.5 mCi 3H-hypoxanthine was added to each well. Cultures were incubated for a further 24 h before they were harvested onto glass-fiber filters and washed with distilled water. The radioactivity was counted using a BetaplateTM liquid scintillation counter (Wallac, Zurich, Switzerland). […] From the sigmoidal inhibition curves IC50 values were calculated. Assays were run in duplicate and repeated once.

[6] = Trypanosoma brucei, 72 h, bloodstream forms STIB 900, 72 h, read-out: IC50 T. brucei rhodes. (Tbr)
[7] = TULAHUEN, L6, 96 h, Tulahuen C2C4 in L-6 cells, 96 h, mean of two independent measurements
[8] = 72 h, pH 5.4, axenic amastigotes, pH 5.4, 72 h, mean of two independent measurements, read-out: IC50 L. donovani (Ldon)
[9] = K1, K1 strain (resistant to chloroquine and pyrimethamine), mean of two independent measurements, read-out: IC50 P. falciparum (Pfc)
[10] = bloodstream forms STIB 900, 72 h, read-out: IC50 T. brucei rhodes. (Tbr)
[11] = Trypanosoma brucei, 72 h, read-out: IC50 T. brucei rhodes. (Tbr), bloodstream forms STIB 900, 72 h
[12] = 72 h, pH 5.4, read-out: IC50 L. donovani (Ldon)
[13] = K1, read-out: IC50 P. falciparum (Pfc)
[14] = L6, Tulahuen C2C4 in L-6 cells, 96 h, mean of two independent measurements
[15] = axenic amastigotes, pH 5.4, 72 h, mean of two independent measurements, read-out: IC50 L. donovani (Ldon)
[16] = L6 cells (rat skeletal myoblasts)

Row | Compound | IC50 [1, 6] | IC50 [2, 7] | IC50 [3] | IC50 [4, 8] | IC50 [5, 9] | IC50 at 72 h [3, 16] | other results
1 | C=C1C(=O)OC2CC(C)C3C(OC(C)=O)CC(O)C3(C)CC12 (centres unmarked) [Compound 10] | 6.71 µM | 20.4 µM | 4.39 µM | 12.2 µM | 6.46 µM |  | 
2 | C=C1C(=O)OC2C1CCC1(C)C(O)CCC(=C)C21 (centres unmarked) [Compound 31] |  | 28.9 µM | 33.2 µM | 6.01 µM | 12.1 µM |  | IC50 [1, 10]: 17.8 µM
3 | C=C1C(=O)OC2C=C(C)CCC3OC3(CO)CC(OC(=O)C3(C)OC3C)C12 (centres unmarked) [Compound 36] | 14.3 µM | 25.6 µM | 13.6 µM | 2.73 µM | 9.44 µM |  | 
4 | CC1CC2OC(=O)C34CC5(C)C=CC13C(CC24)O5 (centres unmarked) [Compound 23] | 162 µM | > 120 µM | > 365 µM | 15.4 µM | > 20 µM |  | 
5 | C=C1C(=O)OC2C=C(C)C(OC(C)=O)CC3OC3(C)CC(OC(=O)C(C)=CC)C12 (centres unmarked) [Compound 39] |  |  |  |  |  |  | IC50 [1, 11]: 0.804 µM; IC50 ([2]; TULAHUEN, L6, 96 h): 17.6 µM; IC50 at 72 h [3]: 10.1 µM; IC50 [4, 12]: 30.1 µM; IC50 [5, 13]: 8.07 µM
6 | C=C1C(=O)OC2CC(C)C3C=CC(=O)C3(C)C(OC(=O)C(C)C)C12 (centres unmarked) [Compound 3] | 0.105 µM |  | 1.03 µM |  |  |  | IC50 [2, 14]: 1.57 µM; IC50 [4, 15]: 0.837 µM; IC50 [5, 13]: 0.7 µM
7 | C=C1C(=O)OC2C=C(C)C(O)CC3OC3(COC(C)=O)CC(OC(=O)C(C)=CC)C12 (centres unmarked) [Compound 40] | 0.698 µM | 11.8 µM | 6.67 µM | 17.1 µM | 6.64 µM |  | 
8 | C=C1C(=O)OC2CC(C)C3C(O)CC(O)C3(C)CC12 (centres unmarked) [Compound 11] | 18.3 µM | 52.7 µM |  | 20.6 µM | 12.1 µM | 31.9 µM | 
9 | CC(C)CC(=O)OC1C2C(CC(C)C3C=CC(=O)C31C)OC(=O)C2C (centres unmarked) [Compound 7] | 0.911 µM | 3.53 µM |  | 1.48 µM | 1.6 µM | 4.58 µM | 
10 | C=C1C(=O)OC2CC(C)C3C(OC(C)=O)CC(O)C3(COC(C)=O)CC12 (centres unmarked) [Compound 16] | 13.6 µM | 44.9 µM |  | 11.8 µM | 10.7 µM | 21.6 µM | 
11 | C=C1C(=O)OC2C=C(C)CCC3OC3(COC(C)=O)CC(OC(=O)C3(C)OC3C)C12 (centres unmarked) [Compound 37] | 0.478 µM | 15.8 µM |  | 5.19 µM | 6.33 µM | 7.75 µM | 
12 | CC(=O)OC1C2C(CC(C)C3C=CC(=O)C31C)OC(=O)C2C (centres unmarked) [Compound 6] | 1.42 µM | 6.93 µM |  | > 4 µM |  | 3.06 µM | 
13 | C=C1C(=O)OC2CC(C)C3C(OC(C)=O)CC(O)C3(C)C(O)C12 (centres unmarked) [Compound 9] | 9.28 µM | 45.8 µM | 12.3 µM |  |  |  | 
14 | C=C(C(=O)OC1CC(C)=CCCC(CO)=CC2OC(=O)C(=C)C21)C(O)CO (centres unmarked) [Compound 33] | 1.3 µM | 16.8 µM |  | 15.2 µM | 6.32 µM | 10.2 µM | 
15 | O=C(Cn1ccnc1[N+](=O)[O-])NCc1ccccc1 [benznidazole, reference compound] |  | 2 µM |  |  |  |  | 
16 | C=C1C(=O)O[C@@H]2C[C@@H](C)[C@@H]3C=CC(=O)[C@@]3(C)[C@@H](O)[C@H]12 [Compound 1, helenalin] |  |  |  |  |  |  | IC50 [1, 11]: < 0.1 µM; IC50 ([1]; read-out: IC50 T. brucei rhodes. (Tbr), bloodstream forms STIB 900, 72 h): 0.052 µM; IC50 ([1]; read-out: IC50 T. brucei rhodes. (Tbr), bloodstream forms STIB 900, 72 h, listed as helenalin): 0.05 to 0.1 µM; IC50 ([2]; TULAHUEN, L6, 96 h): 0.695 µM; IC50 at 72 h [3]: 0.992 µM

Row | Compound | IC50 [1, 6] | IC50 [2, 7] | IC50 [3] | IC50 [4, 8] | IC50 [5, 9] | IC50 at 72 h [3, 16] | other results
17 | C=C1C(=O)OC2CC(C)C3C(O)CC(OC(=O)C(C)=CC)C3(C)C(O)C12 (centres unmarked) [Compound 12] | 11 µM | 49.2 µM | 16.7 µM | 18 µM | 10.6 µM |  | 
18 | C=C1C(=O)OC2CC(C)C3C=CC(=O)C3(C)C(O)C12 (centres unmarked) [Compound 8] |  |  |  |  |  |  | IC50 [1, 11]: 0.319 µM; IC50 ([2]; TULAHUEN, L6, 96 h): 1.87 µM; IC50 at 72 h [3]: 2.44 µM; IC50 [4, 12]: > 4 µM
19 | C=C1C(=O)OC2CC(C)C3C=CC(=O)C3(C)C(OC(C)=O)C12 (centres unmarked) [Compound 2] | < 0.1 µM |  | 0.809 µM |  |  |  | IC50 [1, 10]: 0.063 µM; selectivity index (SI) with respect to Tbr [1]: 13; IC50 [2, 14]: 0.538 µM; IC50 [4, 15]: 0.446 µM; IC50 [5, 13]: 0.329 µM
20 | Nc1nc(N)nc(Nc2ccc([As]3SCC(CO)S3)cc2)n1 (centres unmarked) [melarsoprol, reference compound] |  |  |  |  |  |  | IC50 [1, 11]: 0.008 µM
21 | C=C1C(=O)OC2CC(C)C3=CC(=O)OC3CC12 (centres unmarked) [Compound 24] | 8.21 µM | > 120 µM |  | 27.1 µM | > 20 µM | 427 µM | selectivity index (SI) with respect to Tbr [1]: 52; selectivity index (SI) with respect to Ldon ([4]; ratio of cytotoxic IC50 (L6) over IC50 against Ldon): 15
22 | CC1=CCCC2(C)OC2C2OC(=O)C(C)C2CC1 (centres unmarked) [Compound 35] | 49 µM | > 120 µM |  | 35.6 µM | > 20 µM | 133 µM | 
23 | C=C1C(=O)OC2CC3(C)C(CCC(C)=O)C3CC12 (centres unmarked) [Compound 20] | 15.9 µM | 39 µM |  | 14.6 µM | 12.7 µM |  | IC50 at 72 h [3]: 19.8 µM
24 | C=C1C(=O)OC2CC(C)C(CCC(C)=O)=CCC12 (centres unmarked) [Compound 17] | 62.1 µM | > 120 µM |  | 23.8 µM | > 20 µM | 179 µM | 
25 | C=C1C(=O)O[C@H]2[C@H]1CC/C(C)=C/CC[C@@]1(C)O[C@@H]21 [Compound 34, parthenolide] | 0.388 µM | 10.7 µM |  | 3.56 µM | 11.9 µM | 7.24 µM | 
26 | C=C1C(=O)OC2CC(C)C3(O)C=C(C(C)=O)C4(CC3CC12)C(=O)OC1CC(C)C2(C=CC(C)=O)OC2CC14 (centres unmarked) [Compound 22] | 1.29 µM | 95.4 µM |  | 26.9 µM | 6.53 µM | 13.3 µM | 
27 | C=C1CC(O)CC2(C)CC3OC(=O)C(C)C3CC12 (centres unmarked) [Compound 28] | 341 µM | > 120 µM |  | > 120 µM | > 20 µM | 187 µM | 
28 | C=C1C(=O)OC2CC(C)C3C(O)CC(O)C3(C)C(OC(=O)C(C)=CC)C12 (centres unmarked) [Compound 13] | 19.2 µM |  | 31.8 µM |  |  |  | IC50 [2, 14]: 60.2 µM; IC50 [4, 15]: 14.5 µM; IC50 [5, 13]: 27.5 µM
29 | CC1CC2OC(=O)C(C)C2C(O)C2(C)C(=O)C=CC12 (centres unmarked) [Compound 5] | 0.686 µM |  | 8.9 µM |  |  |  | IC50 [2, 14]: 21.5 µM; IC50 [4, 15]: 3.85 µM; IC50 [5, 13]: 3.05 µM
30 | CCN(CC)CCCC(C)Nc1ccnc2cc(Cl)ccc12 (centres unmarked) [chloroquine, reference compound] |  |  |  |  |  |  | IC50 [5, 13]: 0.248 µM
31 | COc1cc([C@@H]2c3cc4c(cc3[C@H](O)[C@H]3COC(=O)[C@H]23)OCO4)cc(OC)c1OC [podophyllotoxin, reference compound] |  |  |  |  |  |  | IC50 at 72 h [3]: 0.012 µM
32 | CCCCCCCCCCCCCCCCOP(=O)([O-])OCC[N+](C)(C)C [miltefosine, reference compound] |  |  |  | 0.27 µM |  |  | 
